Reference: PMC9886266, “New [1,2,4]triazolo[4,3-c]quinazolines as intercalative Topo II inhibitors: Design, synthesis, biological evaluation, and in silico studies” (PLOS ONE, 2023)

Experiments:
[1] = molecular target: T1, Topoisomerase II (Topo II) (Homo sapiens, UniProt P11388); assay: In vitro Topo II inhibitory assay (TopoGEN Topo II drug screening kit); format: biochemical
T1 construct: purchased TopoGEN, Inc., Columbus
Method: The reported method described by Patra et al was applied using Topo II drug screening kit (TopoGEN, Inc., Columbus).
A typical enzyme reaction was structured to determine Topo II activity. The reaction mixture included Topo II (2 μl), substrate super coiled pHot1 DNA (0.25 μg), 50 μg/ml test compound (2 μl), and assay buffer (4 μl). To start the reaction, the mixture was allowed to incubate in 37°C for 30 min. To terminate the reaction, a mixture of 10% sodium dodecylsulphate (2 μl) and proteinase K (50 μg/mL) was added at 37°C for 15 min. then incubated for 15 min at 37°C.
(§1) After that, the DNA was run on 1% agarose gel in BioRad gel electrophoresis system for 1–2 h followed by staining with GelRedTM stain for 2 h and destained for 15 min with TAE buffer. The gel was imaged via BioRad’s Gel DocTMEZ system. Both supercoiled and linear strands DNA were incorporated in the gel as markers for DNA-Topo II intercalators. The results of IC50 values were calculated using the GraphPad Prism version 7. Each reaction was performed in duplicate, and at least three independent determinations of each IC50 were made. […]
S2.2. Measurement of topoisomerase II Activity […]
analyzed for their Topo II inhibitory activities. The reported method described by Patra et al was applied using Topo II drug screening kit (TopoGEN, Inc., Columbus).
A typical enzyme reaction was structured to determine Topo II activity. The reaction mixture included Topo II (2 µl), substrate super coiled pHot1 DNA (0.25 µg), 50 µg/ml test compound (2 µl), and assay buffer (4 µl). To start the reaction, the mixture was allowed to incubate in 37 °C for 30 min. To terminate the reaction, a mixture of 10% sodium dodecylsulphate (2 µl) and proteinase K (50 µg/mL) was added at 37 °C for 15 min. then incubated for 15 min at 37 °C.
as §1

[2] = molecular target: Topo II α and supercoiled pBR322 DNA (Homo sapiens, UniProt P11388); assay: Topo II-mediated DNA cleavage assay; format: biochemical
Method: The Topo II inhibitors may act through two pathways. Firstly, it can stabilize the Topo II-DNA covalent complexes leading to the formation of linear DNA (Topo II poisons). Secondly, it can block the catalytic site of Topo II (Topo II catalytic inhibitors).
Topo II-mediated DNA cleavage assay was carried out according the reported method by Huang et al. as follows.
Topo II α (10 U), supercoiled pBR322 DNA (0.2 μg) and compound 16 at concentration of 5 and 10 μM were added in Topo II buffer ([…], pH 8.0, 150 mM NaCl, 10 mM MgCl2 2mM ATP, 0.5mM dithiothreitol, and 30 μg/mL BSA) of 20 μL volume. After incubating for 6 min at 37°C and then respectively adding 2 μL of 10% SDS, 2 μL of 250mM NaEDTA, pH 8.0, 2 μL of 0.8 mg/mL Proteinase K. Following reactions were incubated for another 30 min at 45°C. Samples were mixed with 4 μL of 6×loading buffer, heated at 70°C for 2 min and subjected to electrophoresis in a 1% agarose gel in 1×TAE buffer (30 mL) with 1 μL Gel Red. Finally, DNA bands were visualized by using UV light, photographed by using Alpha Innotech digital imaging system.
After that, the DNA was run on 1% agarose gel in BioRad gel electrophoresis system for 1–2 h followed by staining with GelRedTM stain for 2 h and destained for 15 min with TAE buffer. The gel was imaged via BioRad’s Gel DocTMEZ system. Both supercoiled and linear strands DNA were incorporated in the gel as markers for DNA-Topo II intercalators. The results of IC50 values were calculated using the GraphPad Prism version 7. Each reaction was performed in duplicate, and at least three independent determinations of each IC50 were made.
S2.3. DNA/Methyl Green Assay […]
methyl green dye method described by Burres et al. Activated Calf Thymus DNA (Merk, Germany) was treated with methyl green (Merk, Germany), then the synthesized compounds were applied to displace the methyl green dye, producing equivalent color. The results were reported […]
S2.4. Topo II-mediated DNA cleavage assay […]

HCT-116 cells = assay: Flow cytometry cell cycle analysis (propidium iodide); format: cell-based, human; settings: HCT-116, 2.44 μM, 48 h, mean ± SEM
Vero cells = assay: In vitro cytotoxicity against normal cell line; format: cell-based
Text: Although Vero cell are not human cell, it was reported that Vero cells can be used as normal cells to validate the toxicity of the synthesized compounds [43].

Topo II α and supercoiled pBR322 DNA, sequence (P11388 whole entry): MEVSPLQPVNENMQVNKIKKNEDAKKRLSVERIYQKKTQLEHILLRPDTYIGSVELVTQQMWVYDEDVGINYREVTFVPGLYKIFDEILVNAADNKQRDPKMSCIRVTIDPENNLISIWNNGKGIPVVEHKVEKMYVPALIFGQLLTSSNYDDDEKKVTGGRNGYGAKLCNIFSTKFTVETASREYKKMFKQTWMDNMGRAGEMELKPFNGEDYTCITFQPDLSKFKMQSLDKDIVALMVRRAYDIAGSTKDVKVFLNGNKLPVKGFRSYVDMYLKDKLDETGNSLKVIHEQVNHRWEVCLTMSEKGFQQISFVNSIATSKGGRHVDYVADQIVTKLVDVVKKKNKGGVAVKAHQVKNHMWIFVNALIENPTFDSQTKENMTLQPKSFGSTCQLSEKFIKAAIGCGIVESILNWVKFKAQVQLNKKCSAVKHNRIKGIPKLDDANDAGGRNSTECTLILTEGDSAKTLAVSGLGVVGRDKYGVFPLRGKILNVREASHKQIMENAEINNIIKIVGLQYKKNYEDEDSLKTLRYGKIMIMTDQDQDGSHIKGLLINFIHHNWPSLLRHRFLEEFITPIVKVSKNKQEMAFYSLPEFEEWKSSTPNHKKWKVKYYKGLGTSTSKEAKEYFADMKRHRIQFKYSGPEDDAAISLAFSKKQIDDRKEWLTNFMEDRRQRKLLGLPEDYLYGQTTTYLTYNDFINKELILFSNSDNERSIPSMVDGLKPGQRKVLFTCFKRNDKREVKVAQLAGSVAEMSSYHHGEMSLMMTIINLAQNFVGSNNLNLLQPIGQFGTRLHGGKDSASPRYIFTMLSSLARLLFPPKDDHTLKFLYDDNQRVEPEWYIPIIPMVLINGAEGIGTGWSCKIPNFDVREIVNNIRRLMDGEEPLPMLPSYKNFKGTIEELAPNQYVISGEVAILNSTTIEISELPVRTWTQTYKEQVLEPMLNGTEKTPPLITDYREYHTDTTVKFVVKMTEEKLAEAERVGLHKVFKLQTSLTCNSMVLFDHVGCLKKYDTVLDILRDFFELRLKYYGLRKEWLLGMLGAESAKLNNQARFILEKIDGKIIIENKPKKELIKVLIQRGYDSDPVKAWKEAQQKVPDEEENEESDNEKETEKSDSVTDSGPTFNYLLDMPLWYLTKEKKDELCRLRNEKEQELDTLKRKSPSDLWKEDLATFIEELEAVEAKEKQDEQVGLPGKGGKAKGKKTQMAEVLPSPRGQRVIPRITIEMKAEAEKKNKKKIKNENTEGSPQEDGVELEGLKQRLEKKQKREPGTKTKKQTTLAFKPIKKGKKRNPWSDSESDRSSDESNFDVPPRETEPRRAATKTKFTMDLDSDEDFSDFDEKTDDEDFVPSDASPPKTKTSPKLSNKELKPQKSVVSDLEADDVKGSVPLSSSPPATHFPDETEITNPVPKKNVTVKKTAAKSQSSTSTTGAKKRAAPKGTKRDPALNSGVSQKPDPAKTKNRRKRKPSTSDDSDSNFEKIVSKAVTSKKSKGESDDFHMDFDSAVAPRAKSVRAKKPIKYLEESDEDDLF
T1 sequence (P11388 whole entry): as above

## CCCNc1nc2ccccc2c2nnc(C(F)(F)F)n12 [Compound 16, N-Propyl-3-(trifluoromethyl)-[1,2,4]triazolo[4,3-c]quinazolin-5-amine]
[1]
  IC50: 15.2 ± 0.9 µM
[2]; 5 μM
  Effect on relaxation of supercoiled DNA by Topo II: induced relaxation for the DNA
[2]; 10 μM
  Effect on relaxation of supercoiled DNA by Topo II: blocked the formation of relaxed DNA
[2]; all concentrations (5 and 10 μM)
  Formation of linear DNA: the linear DNA was not formed
HCT-116 cells
  Cell cycle distribution % G2/M: 36.89 ± 1.81 %
  Cell cycle distribution %G1: 19.05 ± 1.38 %
  Cell cycle distribution %S: 42.76 ± 2.48 %
  Cell cycle distribution %Sub-G1: 1.30 ± 0.18%
Vero cells; Chlorocebus sabaeus, Vero
  IC50: 63.4 µM
Vero cells; Vero vs HCT-116
  Selectivity: activity against HCT-116 compared with normal Vero cells: 26 fold
Vero cells; Vero vs HepG2
  Selectivity: activity against HepG2 compared with normal Vero cells: 10 fold
Vero cells; compared with sorafenib
  Toxicity to Vero cells less than that of sorafenib: about 2.5 fold
